≈ marks a conversion by molar mass, not a printed value.
Legend:
[1] = Lipophilicity, log D of the compound at pH 7.4 by UV-HPLC method; type: physicochemical; details: buffer
in vitro = details: human, HepG2 cells
Description: Selectivity index, ratio of TC50 for human HepG2 cells to MIC for Mycobacterium tuberculosis

HepG2 [2] = test: Cytotoxicity against human HepG2 cells assessed as compound concentration causing changes in nuclear morphology by Cell Health assay; type: cell-based
[3] = Cytotoxicity against human HepG2 cells incubated for 48 hrs by Cell-titer Glo assay; type: cell-based; details: read-out: TC50
HepG2 [4] = test: Cytotoxicity against human HepG2 cells assessed as compound concentration causing changes in membrane permeability by Cell Health assay; type: cell-based
HepG2 [5] = test: Cytotoxicity against human HepG2 cells assessed as compound concentration causing changes in mitochondrial potential by Cell Health assay; type: cell-based
[6] = system: Mycobacterium tuberculosis; test: microbe, parasite or virus in culture; details: H37Rv, THP-1, 96 h
Description: Antitubercular activity against Mycobacterium tuberculosis H37Rv infected in human THP1 macrophages incubated for 4 days by luciferase reporter gene assay

[7] = molecular target: Voltage-gated inwardly rectifying potassium channel KCNH2 (Homo sapiens, UniProt Q12809); test: Inhibition of human ERG by [3H]dofetilide binding displacement assay
Sequence of Voltage-gated inwardly rectifying potassium channel KCNH2 (Q12809 whole entry): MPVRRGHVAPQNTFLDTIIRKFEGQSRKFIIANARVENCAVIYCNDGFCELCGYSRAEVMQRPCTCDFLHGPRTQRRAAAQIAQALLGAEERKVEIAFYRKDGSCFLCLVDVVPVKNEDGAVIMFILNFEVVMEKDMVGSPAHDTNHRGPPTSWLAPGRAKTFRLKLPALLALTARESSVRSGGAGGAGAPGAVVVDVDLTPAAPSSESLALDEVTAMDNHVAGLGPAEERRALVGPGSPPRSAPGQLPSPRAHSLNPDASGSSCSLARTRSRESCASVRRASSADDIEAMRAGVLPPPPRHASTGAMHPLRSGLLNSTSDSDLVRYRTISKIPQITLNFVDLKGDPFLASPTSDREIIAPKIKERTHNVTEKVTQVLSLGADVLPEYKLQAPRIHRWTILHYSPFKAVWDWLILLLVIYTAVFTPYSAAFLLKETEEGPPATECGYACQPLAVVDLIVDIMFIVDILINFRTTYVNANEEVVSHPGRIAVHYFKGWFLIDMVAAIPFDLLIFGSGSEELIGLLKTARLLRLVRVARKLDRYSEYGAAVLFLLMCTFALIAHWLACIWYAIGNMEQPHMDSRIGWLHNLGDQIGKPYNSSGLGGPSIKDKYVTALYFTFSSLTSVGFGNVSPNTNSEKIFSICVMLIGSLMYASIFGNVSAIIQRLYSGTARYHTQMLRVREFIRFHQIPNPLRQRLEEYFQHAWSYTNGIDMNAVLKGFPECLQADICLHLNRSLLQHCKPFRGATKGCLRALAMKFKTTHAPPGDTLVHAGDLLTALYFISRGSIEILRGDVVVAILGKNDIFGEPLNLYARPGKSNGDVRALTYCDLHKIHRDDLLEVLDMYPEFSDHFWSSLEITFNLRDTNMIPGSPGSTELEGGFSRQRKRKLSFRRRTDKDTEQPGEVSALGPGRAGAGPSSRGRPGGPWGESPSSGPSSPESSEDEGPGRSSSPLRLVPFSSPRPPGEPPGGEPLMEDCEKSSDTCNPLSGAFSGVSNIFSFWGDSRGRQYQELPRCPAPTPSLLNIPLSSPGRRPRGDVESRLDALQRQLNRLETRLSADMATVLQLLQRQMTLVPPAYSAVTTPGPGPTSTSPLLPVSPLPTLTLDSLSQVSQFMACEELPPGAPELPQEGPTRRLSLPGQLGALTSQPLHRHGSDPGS

[8] = Kinetic solubility in pH 7.4 phosphate buffered saline incubated for 1 hr by chemiluminescent nitrogen detection method; type: physicochemical; details: read-out: Kinetic_solubility
Albumin = Albumin (Homo sapiens, UniProt P02768); test: Binding affinity to human serum albumin; type: ADME; details: isolated protein
Sequence of Albumin (P02768 whole entry): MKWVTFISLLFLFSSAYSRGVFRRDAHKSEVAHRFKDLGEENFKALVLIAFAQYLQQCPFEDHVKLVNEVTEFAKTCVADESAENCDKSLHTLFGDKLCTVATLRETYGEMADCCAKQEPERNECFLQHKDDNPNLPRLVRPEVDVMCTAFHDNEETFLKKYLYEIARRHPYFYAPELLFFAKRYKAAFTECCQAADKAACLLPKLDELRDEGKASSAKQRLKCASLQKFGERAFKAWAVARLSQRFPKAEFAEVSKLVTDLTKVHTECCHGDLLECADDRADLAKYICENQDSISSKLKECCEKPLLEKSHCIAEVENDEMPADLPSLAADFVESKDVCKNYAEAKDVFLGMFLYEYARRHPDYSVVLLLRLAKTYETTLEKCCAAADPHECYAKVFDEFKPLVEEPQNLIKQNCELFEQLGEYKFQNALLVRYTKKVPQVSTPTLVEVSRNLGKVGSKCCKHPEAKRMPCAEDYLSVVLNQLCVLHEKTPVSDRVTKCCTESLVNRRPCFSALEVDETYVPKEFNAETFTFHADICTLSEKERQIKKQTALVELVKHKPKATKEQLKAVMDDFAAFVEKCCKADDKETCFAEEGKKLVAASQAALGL

[9] = system: Mycobacterium tuberculosis; test: microbe, parasite or virus in culture; details: 144 h
Description: Antitubercular activity against Mycobacterium tuberculosis after 6 days by resazurin-based fluorescence assay

[10] = Permeability of the compound by artificial membrane permeability assay; type: ADME; details: PAMPA; read-out: permeability
[11] = Solubility of the compound in FaSSIF at pH 6.5 incubated for 4 hrs by UPLC-MS method; type: physicochemical

SMILES	selectivity ratio (in vitro)	CC50 at 48 h [3] [µM]	IC50 [6] [µM]	MIC [9] [µM]	other results
Cc1c(CN2CCOCC2)cc(-c2ccc(C(C)C)cc2)n1C1CCC1	250	20	0.08	0.08 (≈ 0.0282 µg/mL)	logD ([1]; read-out: logD): 8.13; Activity (HepG2 [2]): 25 µM; Activity (HepG2 [4]): 25 µM; Activity (HepG2 [5]): 32 µM; IC50 [7]: 8 µM; solubility kinetic at 1 h [8]: 71 µM (≈ 25 µg/mL); Activity (Albumin): 98.12%; Papp [10]: 55 ×10⁻⁶ cm/s
Cc1c(CN2CCOCC2)cc(-c2ccc(C(C)C)cc2)n1C1CCOCC1		50.1		2.5 (≈ 0.956 µg/mL)	
Cc1c(CN2CCOCC2)cc(-c2ccc(C(C)C)cc2)n1C1COC1		80	2.5	2.5 (≈ 0.886 µg/mL)	Activity (HepG2 [2]): 80 µM; Activity (HepG2 [4]): 80 µM; Activity (HepG2 [5]): 100 µM
Cc1c(CN2CCOCC2)cc(-c2ccc(C(C)C)cc2)n1[C@@H]1CCCNC1		16		> 80	
Cc1c(CN2CCOCC2)cc(-c2ccc(Cl)cc2)n1C(C)C				2.5 (≈ 0.832 µg/mL)	
Cc1c(CN2CCOCC2)cc(-c2ccc(C(C)C)cc2)n1CC1CCCO1 (centres undefined)		32	5	5 (≈ 1.91 µg/mL)	Activity (HepG2 [2]): 40 µM; Activity (HepG2 [4]): 50 µM; Activity (HepG2 [5]): 63 µM
Cc1c(CN2CCOCC2)cc(-c2ccc(C(C)C)cc2)n1CCCC(=O)O		> 100		> 40	
Cc1c(CN2CCOCC2)cc(-c2ccc(C(C)C)cc2)n1CCC(=O)O		> 100		> 40	
Cc1c(CN2CCOCC2)cc(-c2ccc(C(C)C)cc2)n1C	13	16	1.25	1.25 (≈ 0.391 µg/mL)	Activity (HepG2 [2]): 40 µM; Activity (HepG2 [4]): 40 µM; Activity (HepG2 [5]): 50 µM
Cc1c(CN2CCOCC2)cc(-c2ccc(C(C)C)cc2)n1C1CCCN(C(=O)OC(C)(C)C)C1 (single isomer, unassigned)		16		30 (≈ 14.5 µg/mL)	
CC(=O)Nc1ccc(-c2cc(CN3CCOCC3)c(C)n2-c2ccc(F)cc2)cc1	40	80	3.3	1.25 (≈ 0.509 µg/mL)	
COCCCn1c(-c2ccc(C(C)C)cc2)cc(CN2CCOCC2)c1C			1.25	1.3 (≈ 0.482 µg/mL)	Activity (HepG2 [2]): 32 µM; Activity (HepG2 [4]): 40 µM; Activity (HepG2 [5]): 50 µM
Cc1c(CN2CCOCC2)cc(-c2ccc(C(C)C)cc2)n1C1CCCC(O)C1 (centres undefined)		20		> 40	
Cc1c(CN2CCOCC2)cc(-c2ccc(C(C)C)cc2)n1-c1ccc(C(=O)O)cc1		> 100		> 40	
Cc1cc(Cl)ccc1-c1cc(CN2CCOCC2)c(C)n1-c1ccc(F)cc1		> 100	> 10	5 (≈ 1.99 µg/mL)	Activity (HepG2 [2]): > 200 µM; Activity (HepG2 [4]): > 200 µM; Activity (HepG2 [5]): > 200 µM
COCCn1c(-c2ccc(C(C)C)cc2)cc(CN2CCOCC2)c1C	39	50.1	1.32	1.3 (≈ 0.463 µg/mL)	
Cc1c(CN2CCOCC2)cc(-c2ccc(C(F)(F)F)cc2)n1C(C)C		20		2.5 (≈ 0.916 µg/mL)	
Cc1c(CN2CCOCC2)cc(-c2ccc(C(C)C)cc2)n1C1CC1	67	20	0.2	0.3 (≈ 0.102 µg/mL)	logD ([1]; read-out: logD): 7.21; Activity (HepG2 [2]): 40 µM; solubility at 4 h [11]: 511 µg/mL (≈ 1510 µM); Activity (HepG2 [4]): 40 µM; Activity (HepG2 [5]): 50 µM; IC50 [7]: 8 µM; solubility kinetic at 1 h [8]: 181 µM (≈ 61.3 µg/mL); Activity (Albumin): 96.49%
Cc1c(CN2CCOCC2)cc(-c2ccc(C(C)C)cc2)n1-c1ncccn1		> 100		40 (≈ 15.1 µg/mL)	
Cc1c(CN2CCOCC2)cc(-c2ccc(C(C)C)cc2)n1CC(C)C	100	20	0.08	0.2 (≈ 0.0709 µg/mL)	logD ([1]; read-out: logD): 8.46; IC50 [7]: 16 µM; solubility kinetic at 1 h [8]: 47 µM (≈ 16.7 µg/mL); Activity (Albumin): 97.12%; Papp [10]: 43 ×10⁻⁶ cm/s
Cc1c(CN2CCOCC2)cc(-c2ccc(C(F)(F)F)cc2)n1C1CCCCC1	> 167	> 100		1.25 (≈ 0.508 µg/mL)	

SMILES	selectivity ratio (in vitro)	CC50 at 48 h [3] [µM]	IC50 [6] [µM]	MIC [9] [µM]	other results
Cc1c(CN2CCOCC2)cc(-c2ccc(C(C)C)cc2)n1-c1ccc(F)cc1	333	40	0.1	0.12 (≈ 0.0471 µg/mL)	logD ([1]; read-out: logD): 8.1; Activity (HepG2 [2]): > 40 µM; solubility at 4 h [11]: 5 µg/mL (≈ 12.7 µM); Activity (HepG2 [4]): > 40 µM; Activity (HepG2 [5]): > 40 µM; IC50 [7]: 10 µM; solubility kinetic at 1 h [8]: < 1 µM; Activity (Albumin): 98.37%; Papp [10]: 24 ×10⁻⁶ cm/s
Cc1c(CN2CCOCC2)cc(-c2ccc(Cl)nc2)n1-c1ccc(F)cc1		80	> 10	> 5	
Cc1c(CN2CCOCC2)cc(-c2ccc(C(C)C)cc2)n1C1CCN(C(=O)OC(C)(C)C)CC1			> 10	> 5	
Cc1c(CN2CCOCC2)cc(-c2ccc(C(C)C)cc2)n1Cc1ccc(F)cc1	250	20	0.16	0.08 (≈ 0.0325 µg/mL)	logD ([1]; read-out: logD): 8.2; IC50 [7]: 5 µM; solubility kinetic at 1 h [8]: 11 µM (≈ 4.47 µg/mL); Activity (Albumin): 98.47%; Papp [10]: 30 ×10⁻⁶ cm/s
Cc1c(CN2CCOCC2)cc(-c2ccc(C(C)C)cc2)n1-c1ccc(N(C)C)cc1	13	16	2.5	1.25 (≈ 0.522 µg/mL)	
Cc1c(CN2CCOCC2)cc(-c2ccc(C(C)C)cc2)n1C1CCN(C)CC1		20	> 10	> 5	
NNC(=O)c1ccncc1 [ISONIAZID]				1.8 (≈ 0.247 µg/mL)	
Cc1c(CN2CCOCC2)cc(-c2ccc(C(F)(F)F)cc2)n1C1CCC1	67	20		1.25 (≈ 0.473 µg/mL)	
Cc1c(CN2CCOCC2)cc(-c2ccc(C(F)(F)F)cc2)n1-c1ccc(F)cc1	167	> 100		0.6 (≈ 0.251 µg/mL)	logD ([1]; read-out: logD): 7.67; IC50 [7]: > 50 µM; solubility kinetic at 1 h [8]: < 1 µM; Activity (Albumin): 98.33%; Papp [10]: 15 ×10⁻⁶ cm/s
Cc1c(CN2CCOCC2)cc(Cc2ccccc2)n1-c1ccc(F)cc1		10		> 5	
Cc1[nH]c(-c2ccc(C(C)C)cc2)cc1CN1CCOCC1		1.6	> 10	12.5 (≈ 3.73 µg/mL)	
COc1ccc(-c2cc(CN3CCOCC3)c(C)n2C(C)C)cc1				2.5 (≈ 0.821 µg/mL)	
Cc1c(CN2CCOCC2)cc(-c2ccc(C(C)C)cc2)n1CC(C)(C)O		40	2.5	2.5 (≈ 0.926 µg/mL)	Activity (HepG2 [2]): 50 µM; Activity (HepG2 [4]): 100 µM; Activity (HepG2 [5]): 126 µM
Cc1c(CN2CCOCC2)cc(-c2ccc(C(C)C)cc2)n1CC1CCOCC1		> 100	5.28	> 5	
Cc1c(CN2CCOCC2)cc(C2CCCCC2)n1-c1ccc(F)cc1		50	> 10	> 5	
Cc1c(CN2CCOCC2)cc(-c2ccc(C(C)C)cc2)n1[C@@H]1CCCN(C)C1		25		> 40	
Cc1c(CN2CCOCC2)cc(-c2ccc(C(C)C)cc2)n1C1CCCCC1	> 267	> 100	0.63	0.3 (≈ 0.114 µg/mL)	logD [1]: 9.13; Activity (HepG2 [2]): > 200 µM; Activity (HepG2 [4]): > 200 µM; Activity (HepG2 [5]): > 200 µM; IC50 [7]: 50 µM; solubility kinetic at 1 h [8]: < 1 µM; Activity (Albumin): 98.1%; Papp [10]: 27 ×10⁻⁶ cm/s
Cc1cc(CN2CCOCC2)c(C)n1-c1ccc(F)cc1		> 100	> 10	> 5	
Cc1c(CN2CCOCC2)cc(-c2ccc(C(C)C)cc2)n1-c1cccc(C(=O)O)c1		> 100		40 (≈ 16.7 µg/mL)	
Cc1c(CN2CCOCC2)cc(-c2ccc(Cl)cn2)n1-c1ccc(F)cc1		> 100	> 10	> 125	Activity (HepG2 [2]): > 200 µM; Activity (HepG2 [4]): > 200 µM; Activity (HepG2 [5]): > 200 µM
Cc1c(CN2CCOCC2)cc(-c2ccc(C(C)C)cc2)n1-c1ccc(F)cn1	33	20	0.6	0.6 (≈ 0.236 µg/mL)	logD ([1]; read-out: logD): 6.85; Activity (HepG2 [2]): 50 µM; Activity (HepG2 [4]): 63 µM; Activity (HepG2 [5]): 80 µM; IC50 [7]: 8 µM; solubility kinetic at 1 h [8]: 276 µM (≈ 109 µg/mL); Activity (Albumin): 94.13%; Papp [10]: 64 ×10⁻⁶ cm/s

From ChEMBL document CHEMBL4251653, “In vivo potent BM635 analogue with improved drug-like properties” (Eur J Med Chem, 2018)
